From US5756478A, “Method for reducing toxicity of D-nucleoside analogs with L-nucleosides” (priority 1996, dated 1998) come the findings set out here.

What all share (assay type): cell-based
In assay [1] the test system is CEM, a Human T-type lymphoblast tumor cell line. Description: Cell growth inhibition of CEM cells by D-nucleosides with or without L-nucleosides. From the text:
CEM, a Human T-type lymphoblast tumor cell line was used for this study. […] At the end of four days after the addition of the drug, the cell number was estimated by hemocytometer. […] The data, presented below in Table 1-3, are normalized against the control. The parenthetical values represent the expected effect the combined agents should have on cell growth.

The subject of assay [2] is HIV-1IIIB. Put plainly: Anti-HIV combination of D- and L-nucleosides in HIV-1IIIB infected MT-2 cells (isobolograms). The settings on record: for Nature of the anti-HIV combination effect with L-nucleosides (ID50): D-nucleoside co-administered with β-L-FddC, L(-)FTC, L(-)SddC or β-L-Fd4C. On the procedure:
(§1) The following anti-HIV drugs were tested in combination with the L-nucleosides β-L-5-fluoro-2',b 3'-dideoxycytidine [β-L-FddC or L(-)FddC], β-L-5-fluoro-2',3'-dideoxy-2',3'-didehydrocytidine [β-L-Fd4C or L(-)Fd4C], β-L-5-fluoro-2',3'-dideoxy-3'-thiacytidine [L(-)FTC] and β-L-2',3'-dideoxy-3'-thiacytidine [L(-)SddC or 3TC]: 3'-azido-3'deoxythymidine (AZT) as well as the β-D-2',3'-dideoxynucleosides, for example, β-D-2',3'-dideoxycytidine (ddC), β-D-2',3'-dideoxyadenosine, β-D-2',3'-dideoxyinosine (DDI) and β-D-2',3'-didehydro-3'-deoxy-thymidine (D4T). β-L-FddC and β-L-Fd4C was obtained following the method of Lin, et al., J. Med. Chem., 37, no. 6 (1994). L(-)FTC and L(-)SddC were prepared by standard literature procedures. See, for example, Jeong, et al. J. Med. Chem., 36, 181 (1993). AZT was obtained from Sigma Chemical Co., St. Louis, Mo., USA. ddC was obtained from Aldrich Chemical Co., Milwaukke, Wis. USA. DDI and D4T were obtained from Bristol-Myers Co., Wallingford, Conn., USA.
(§2) The above-mentioned drugs were tested using MT-2 cells infected with HIV-1IIIB as described by JW Mellers, et al., Molecular Pharm. 41, 446-451 (1991) with some modification. Briefly, triplicate wells of 96-well plates containing 1×10^4 MT-2 cells were infected with HIV-1IIIB at a multiplicity of infection (MOI) of 0.1 TCID50 per cell (TCID50 - 50% tissue culture infective dose). Serial dilutions of drug were added immediately after infection. Cell viability was quantitated 5 days after infection by the MTT-dye reduction model (Larder, et al. Antimicrob. Agents Chemother. 34, 436-441, 1990). The percentage of protection was calculated with the formula [(a-b/c-b)×100], in which a=the A595 of drug-treated, virus-infected well, b=A595 of no-drug infected wells, and c=A595 of no-drug, uninfected wells.
Isobolograms (FIGS. 1-2) were plotted as the percent change in the ID50 of β-L-FddC (L(-)FddC), L(-)FTC, L(-)SddC (FIGS. 1 and 2) β-L-Fd4C (L(-)Fd4C) at various concentrations in combination with AZT, D4T, ddC or DDI at varying concentations on the x-axis and vice versa on the y-axis. Isobolograms (FIG. 3) were plotted as the percent change in the ID50 of β-L-Fd4C (L(-)Fd4C) at various concentrations in combination with AZT or D4T at varying concentrations on the x-axis and vice-versa on the y-axis.

The test system of assay [3] is HIV-1IIIB. Description: Anti-HIV activity: protection of MT-2 cells infected with HIV-1IIIB (MTT-dye reduction). The settings on record: Human immunodeficiency virus 1, MT2, 120 h. On the procedure:
as §1, §2

Setting [4] is: 50 uM, in combination with 1 uM 3TC.
[5] abbreviates: 50 uM, in combination with 1 uM (-) FTC.
Where [6] appears, read: 50 uM, in combination with 1 uM β-L-FddC.
Where [7] appears, read: Homo sapiens, CCRF-CEM, 96 h, single agent, 50 uM, day 4, read-out: Day 4 Cell Growth - % of Control.
Setting [8] is: MT-2 cells, HIV-1IIIB, MOI 0.1 TCID50 per cell, 5 days, read-out: ID50 (the source's name).

“And” between values parts separate entries of the source, which are not always exact repeats. Equal values may be shown once. “Also recorded” adds a separate entry of the source. Read-outs that look alike come from different tables or passages of the source.

For `Cc1cn([C@H]2C[C@H](N=[N+]=[N-])[C@@H](CO)O2)c(=O)[nH]c1=O` [AZT, 3'-azido-3'deoxythymidine], the “Day 4 Cell Growth - % of Control” value in assay [1] (0.5 uM, in combination with 1 uM 3TC) is on record as 83 % of Control; in assay [1] (0.5 uM, in combination with 1 uM (-) FTC), 87 % of Control; in assay [1] (0.5 uM, in combination with 1 uM β-L-FddC), 80 % of Control; in assay [1] (5.0 uM, in combination with 1 uM 3TC), 76 % of Control; in assay [1] (5.0 uM, in combination with 1 uM (-) FTC), 83 % of Control; in assay [1] (5.0 uM, in combination with 1 uM β-L-FddC) it was 79 % of Control. Besides, the “Day 4 Cell Growth - % of Control” value is 70 % of Control in assay [1] (setting [4]); 64 % of Control in assay [1] (setting [5]); 75 % of Control in assay [1] (setting [6]); 82 % of Control and 85 % of Control in assay [1] (single agent, 0.5 uM, 5760 min); 79 % of Control in assay [1] (single agent, 5.0 uM, 5760 min); 72 % of Control in assay [1] (single agent, 50 uM, 5760 min). Further, the activity at 0.5 µM in assay [1] (Homo sapiens, CCRF-CEM, 96 h, single agent, 0.5 uM, day 4, read-out: Day 4 Cell Growth - % of Control) came to 91%. Besides, the activity at 5 µM in assay [1] (Homo sapiens, CCRF-CEM, 96 h, single agent, 5.0 uM, day 4, read-out: Day 4 Cell Growth - % of Control) amounted to 89%. Moreover, the activity at 50 µM in assay [1] (setting [7]) was 74%. Further, the results for the “Day 4 Cell Growth - % of Control, expected effect of the combined agents (parenthetical)” value (“Day 4 Cell Growth - % … (parenthetical)” for short) in assay [1] (0.5 uM with 1 uM β-L-FddC), in assay [1] (5.0 uM with 1 uM β-L-FddC) and in assay [1] (50 uM with 1 uM β-L-FddC) were 76 % of Control, 75 % of Control and 62 % of Control, respectively. In addition, the “Nature of the anti-HIV combination effect with L-nucleosides (ID50)” value (from here on “Nature”) in the assay with HIV-1IIIB [2] is reported as “synergistically; also recorded: synergistic”. For the same compound, the IC50 with HIV-1IIIB [3] (read-out: ID50) was found to be 0.09 µM.
Take `Cc1cn([C@H]2C=C[C@@H](CO)O2)c(=O)[nH]c1=O` [D4T, β-D-2',3'-didehydro-3'-deoxy-thymidine]: the “Day 4 Cell Growth - % of Control” value in assay [1] (0.3 uM, in combination with 1 uM 3TC) is 94 % of Control; in assay [1] (0.3 uM, in combination with 1 uM (-) FTC), 84 % of Control; in assay [1] (0.3 uM, in combination with 1 uM β-L-FddC), 86 % of Control; in assay [1] (3.0 uM, in combination with 1 uM 3TC), 86 % of Control; in assay [1] (3.0 uM, in combination with 1 uM (-) FTC), 75 % of Control; in assay [1] (3.0 uM, in combination with 1 uM β-L-FddC), 75 % of Control. Also, the “Day 4 Cell Growth - % of Control” value in assay [1] (30 uM, in combination with 1 uM 3TC) is 73 % of Control; in assay [1] (30 uM, in combination with 1 uM (-) FTC), 65 % of Control; in assay [1] (30 uM, in combination with 1 uM β-L-FddC) it was 68 % of Control; in assay [1] (single agent, 0.3 uM, 5760 min), 89 % of Control; in assay [1] (single agent, 3.0 uM, 5760 min), 80 % of Control; in assay [1] (single agent, 30 uM, 5760 min) it was 65 % of Control and 64 % of Control. Also, the activity at 0.3 µM in assay [1] (Homo sapiens, CCRF-CEM, 96 h, single agent, 0.3 uM, day 4, read-out: Day 4 Cell Growth - % of Control) is 98%. Besides, the activity at 3 µM in assay [1] (Homo sapiens, CCRF-CEM, 96 h, single agent, 3.0 uM, day 4, read-out: Day 4 Cell Growth - % of Control) turned out to be 84%. For the same compound, the activity at 30 µM in assay [1] (Homo sapiens, CCRF-CEM, 96 h, single agent, 30 uM, day 4, read-out: Day 4 Cell Growth - % of Control) was 70%. The “Day 4 Cell Growth - % … (parenthetical)” value in assay [1] (0.3 uM with 1 uM β-L-FddC) is reported as 82 % of Control; in assay [1] (3.0 uM with 1 uM β-L-FddC), 71 % of Control; in assay [1] (30 uM with 1 uM β-L-FddC), 59 % of Control. Moreover, the “Nature” value in the assay on HIV-1IIIB [2] was “synergistically; also recorded: synergistic”. The IC50 with HIV-1IIIB [3] (read-out: ID50) came to 6 µM.
With `O=c1[nH]cnc2c1ncn2C1CCC(CO)O1` [DDI, β-D-2',3'-dideoxyinosine], the “Day 4 Cell Growth - % of Control” value in assay [1] (setting [4]) is listed as 89 % of Control; in assay [1] (setting [5]), 84 % of Control; in assay [1] (setting [6]), 84 % of Control; in assay [1] (100 uM, in combination with 1 uM 3TC), 87 % of Control; in assay [1] (100 uM, in combination with 1 uM (-) FTC), 80 % of Control; in assay [1] (100 uM, in combination with 1 uM β-L-FddC) it was 80 % of Control. For the same compound, the “Day 4 Cell Growth - % of Control” value was 80 % of Control in assay [1] (200 uM, in combination with 1 uM 3TC); 75 % of Control in assay [1] (200 uM, in combination with 1 uM (-) FTC); 75 % of Control in assay [1] (200 uM, in combination with 1 uM β-L-FddC); 94 % of Control in assay [1] (single agent, 50 uM, 5760 min); 89 % of Control in assay [1] (single agent, 100 uM, 5760 min); 79 % of Control in assay [1] (single agent, 200 uM, 5760 min). Besides, the activity at 50 µM in assay [1] (setting [7]) turned out to be 88%. Moreover, in assay [1] (Homo sapiens, CCRF-CEM, 96 h, single agent, 100 uM, day 4, read-out: Day 4 Cell Growth - % of Control), the activity at 100 µM amounted to 85%. In assay [1] (Homo sapiens, CCRF-CEM, 96 h, single agent, 200 uM, day 4, read-out: Day 4 Cell Growth - % of Control), the activity at 200 µM was determined as 78%. For the same compound, the “Day 4 Cell Growth - % … (parenthetical)” value in assay [1] (50 uM with 1 uM (-) FTC) is given as 74 % of Control; in assay [1] (50 uM with 1 uM β-L-FddC) it was 74 % of Control; in assay [1] (100 uM with 1 uM (-) FTC) it was 71 % of Control; in assay [1] (100 uM with 1 uM β-L-FddC), 71 % of Control; in assay [1] (200 uM with 1 uM (-) FTC), 65 % of Control; in assay [1] (200 uM with 1 uM β-L-FddC), 65 % of Control. Moreover, the “Nature” value in the assay with HIV-1IIIB [2] is listed as “additively; also recorded: additive”. Further, in the assay on HIV-1IIIB [3] (setting [8]), the IC50 came out at 20 µM.
For the compound `Nc1nc(=O)n([C@@H]2C=C[C@H](CO)O2)cc1F` [β-L-Fd4C, β-L-5-fluoro-2',3'-dideoxy-2',3'-didehydrocytidine], the “Effect of L-nucleoside on ID50 of co-administered D-nucleoside” value with HIV-1IIIB [2] (with AZT, D4T, ddC or DDI) is “reduces the ID50 value of AZT, ddC, DDI and D4T; also recorded: decreases the ID50 of a co-administered D-nucleoside and vice versa”. In the assay with HIV-1IIIB [3] (setting [8]), the IC50 worked out at 0.09 µM.
